How the values were obtained:
Format in all cases: functional, cell-based
MCF7 = assay: Antiproliferative activity against human MCF7 cells after 48 hrs by resazurin reduction assay; conditions: MCF7, 48 h
[1] = Antiproliferative activity against human fibroblast cells after 48 hrs by resazurin reduction assay
PA-1 = assay: Antiproliferative activity against human PA1 cells after 48 hrs by resazurin reduction assay; conditions: PA-1, 48 h

IC50 (MCF7) [µM] | SMILES | IC50 [1] [µM] | IC50 (PA-1) [µM]
> 100 | COc1ccc2ccc(-c3cc4ccccc4nc3OC)cc2n1 | 54 | 36
> 100 | CCOc1ccc2ccc(-c3cc4ccccc4nc3OCC)cc2n1 | 37 | 37
> 100 | CCOc1ccc2ccc(-c3cc4ccc(-c5cc6ccccc6nc5OCC)cc4nc3OCC)cc2n1 | > 100 | 50
